Results reported in ChEMBL document CHEMBL1134012, “Synthesis of thiophene-2-carboxamidines containing 2-aminothiazoles and their biological evaluation as urokinase inhibitors” (Bioorg Med Chem Lett, 2001).

Biological target: Urokinase-type plasminogen activator (Homo sapiens, UniProt P00749)
Assay: In vitro inhibitory activity against Urokinase-type plasminogen activator (microPa)

Compared with CSc1sc(C(=N)N)cc1-c1csc(Nc2cccc(OCC(N)=O)c2)n1, COc1cccc(Nc2nc(-c3cc(C(=N)N)sc3SC)cs2)c1 is 3.6-fold lower in Ki: 1.02 µM for the first, 0.28 µM for the second. The second binds more tightly here.

First: CSc1sc(C(=N)N)cc1-c1csc(Nc2cccc3ccccc23)n1
Second: CSc1sc(C(=N)N)cc1-c1csc(Nc2ccccc2Br)n1
The Ki of the first is 1.8-fold higher: 0.5 µM for the first, 0.28 µM for the second.

First: CSc1sc(C(=N)N)cc1-c1csc(NC(c2ccccc2)c2ccccc2)n1
Second: CSc1sc(C(=N)N)cc1-c1csc(Nc2ccc(Cc3ccccc3)cc2)n1
The Ki of the first is 6.6-fold higher: 1.18 µM for the first, 0.18 µM for the second.

First: CSc1sc(C(=N)N)cc1-c1csc(Nc2ccc(OCc3ccccc3)cc2)n1
Second: CSc1sc(C(=N)N)cc1-c1csc(Nc2ccc(Oc3ccccc3)cc2)n1
The Ki of the first is 3-fold higher: 0.18 µM for the first, 0.06 µM for the second. The second binds more tightly here.

COc1ccc(Nc2nc(-c3cc(C(=N)N)sc3SC)cs2)cc1 and CSc1sc(C(=N)N)cc1-c1csc(Nc2ccc(N(C)C)cc2)n1 are within 1.5-fold of each other in Ki: 0.28 µM for the first, 0.31 µM for the second.

Going from CSc1sc(C(=N)N)cc1-c1csc(Nc2ccc(C)cc2Br)n1 to CSc1sc(C(=N)N)cc1-c1csc(Nc2ccc(Cl)cc2C)n1, the Ki falls from 0.43 µM to 0.28 µM (1.5-fold). The second binds more tightly here.

First: CSc1sc(C(=N)N)cc1-c1csc(Nc2ccc(S(=O)(=O)N3CCCCC3)cc2)n1
Second: CSc1sc(C(=N)N)cc1-c1csc(NCCN2CCCCC2)n1
The Ki of the first is 4-fold lower: 0.4 µM for the first, 1.6 µM for the second.

Going from CSc1sc(C(=N)N)cc1-c1csc(NCCN2CCOCC2)n1 to CSc1sc(C(=N)N)cc1-c1csc(NCCCc2ccccc2)n1, the Ki falls from 1.4 µM to 0.35 µM (4-fold). The second binds more tightly here.

First: CSc1sc(C(=N)N)cc1-c1csc(N)n1
Second: Cc1sc(C(=N)N)cc1-c1csc(N)n1
The Ki of the first is 2.4-fold higher: 3.9 µM for the first, 1.62 µM for the second.

First: CSc1sc(C(=N)N)cc1-c1csc(Nc2ccccc2C(C)C)n1
Second: CSc1sc(C(=N)N)cc1-c1csc(Nc2ccccc2Cl)n1
The Ki of the first is 2.1-fold lower: 0.7 µM for the first, 1.46 µM for the second. The first binds more tightly here.

First: COc1ccc(OC)c(Nc2nc(-c3cc(C(=N)N)sc3SC)cs2)c1
Second: CSc1sc(C(=N)N)cc1-c1csc(Nc2cccc(C)c2C)n1
The Ki of the first is 2.4-fold higher: 0.66 µM for the first, 0.28 µM for the second.

CSc1sc(C(=N)N)cc1-c1csc(NCc2ccc(C)cc2)n1 and CSc1sc(C(=N)N)cc1-c1csc(Nc2cccc(Cl)c2C)n1 are within 1.5-fold of each other in Ki: 0.64 µM for the first, 0.44 µM for the second.

First: CSc1sc(C(=N)N)cc1-c1csc(Nc2ccc(Nc3ccccc3)cc2)n1
Second: CSc1sc(C(=N)N)cc1-c1csc(Nc2ccc(/N=N/c3ccccc3)cc2)n1
The Ki of the first is 2.6-fold lower: 0.07 µM for the first, 0.18 µM for the second.

Going from N=C(N)c1ccc(CS)s1 to CSc1sc(C(=N)N)cc1-c1csc(Nc2ccc3c(c2)OCO3)n1, the Ki falls from 6 µM to 0.52 µM (12-fold). The second binds more tightly here.

Compared with CSc1sc(C(=N)N)cc1-c1csc(Nc2ccc(Oc3ccc(Cl)cc3)cc2)n1, CSc1sc(C(=N)N)cc1-c1csc(Nc2ccc(Oc3ccc(C(F)(F)F)cn3)cc2)n1 is 8.3-fold higher in Ki: 0.11 µM for the first, 0.91 µM for the second.

Compared with Cc1sc(C(=N)N)cc1-c1csc(Nc2ccc(Oc3ccccc3)cc2)n1, CSc1sc(C(=N)N)cc1-c1csc(Nc2c(Cl)cccc2Cl)n1 is 19-fold higher in Ki: 0.08 µM for the first, 1.5 µM for the second. The first binds more tightly here.

Going from COc1cc(Nc2nc(-c3cc(C(=N)N)sc3SC)cs2)cc(OC)c1OC to CSc1sc(C(=N)N)cc1-c1csc(N2CCN(c3ccccc3F)CC2)n1, the Ki rises from 0.16 µM to 3.06 µM (19-fold).
